This is an account of results in patent US20080317692A1, “SUICIDE SUBSTRATES OF TYROSINASE AND USE THEREOF” (SUSTINEO BIOTECHNOLOGY CO., LTD, priority 2007, published 2008).

SMILES strings stand for the structures.

For experiment [1], the system named is mushroom tyrosinase. As to the kind of experiment: HPLC analysis of the reaction of isoflavone with tyrosinase (substrate behaviour). The format is biochemical. The note with it: 100 μM isoflavone, tyrosinase 1000 units/mL, 50 mM phosphate buffer pH 6.8 (FIG. 3).
The test system of experiment [2] is mushroom tyrosinase. As to the kind of experiment: Irreversible inhibitory activity assay (preincubation with tyrosinase, then L-DOPA). As to conditions: for enzyme inactivation after preincubation: 10 μM isoflavone, after 7 min of preincubation (FIG. 4); for type of inhibition: preincubation with 3 or 10 μM isoflavone.
Procedure: In irreversible inhibitory activity assays, 20 units of tyrosinase was preincubated with a 3 or 10 μM concentration of the tested isoflavone (dissolved in DMSO) in 1 mL of 50 mM phosphate buffer (pH 6.8) at 25° C. At intervals of 0, 2, 7, 12, and 30 min, 200 μL of the preincubation mixture was mixed with 800 μL of 2.5 mM L-DOPA and incubated at 25° C. for 10 min. The formation of dopachrome in each reaction was monitored with a spectrophotometer. The relative activity was calculated by dividing the absorbance at 475 nm of each reaction by that of the control reaction, in which DMSO replaced the added isoflavone. For recovery experiments, the preincubation mixture incubated for 30 min was either dialyzed twice against 200 mL of phosphate buffer at 4° C. for 1 h with stirring or centrifuged through a Sephadex G-25 spin column (Sigma). Then, the residual tyrosinase activities of the mixtures from the two treatments were assayed as described above.
Then, 800 μL of 2.5 mM L-DOPA was added, and the reaction mixture was incubated at 25° C. for 10 min. For comparison, another set of experiments was conducted by mixing immediately the tested compound, tyrosinase, and L-DOPA in 1 mL of phosphate buffer and incubated at 25° C. for 10 min. The formation of dopachrome in each reaction was monitored with a spectrophotometer. The relative activity was calculated by dividing the absorbance at 475 nm of each reaction mixture by that of the control reaction, in which DMSO replaced the tested compound. All enzymatic reactions described above were carried out at least three times independently, and the average values are presented.
For experiment [3], the system named is mushroom tyrosinase. As to the kind of experiment: Enzymatic assay of tyrosinase (dopachrome formation at 475 nm, L-tyrosine or L-DOPA as substrate). The note with it: 0.05 mM isoflavone; for inhibition of monophenolase activity (dopachrome formation): 0.1 mM L-tyrosine as substrate (FIG. 2A); for lag time of monophenolase activity (L-tyrosine oxidation): 0.1 mM L-tyrosine, tyrosinase 100 units/mL (FIG. 2A). The format is biochemical. The protocol: Ten microliters of the test sample (dissolved in DMSO) was mixed with 970 μL of 0.112 mM substrate (L-tyrosine or L-DOPA dissolved in 50 mM phosphate buffer, pH 6.8) at 25° C. for 2 min. […] The increase in absorbance at 475 nm due to the formation of dopachrome was monitored with a spectrophotometer.

For experiment [4], the system named is mushroom tyrosinase. Put plainly: Partition ratio of suicide substrate (method of Waley, titration of tyrosinase). The format is biochemical. The note with it: for molecules required to inactivate 1 molecule of the enzyme (1+r): 0.1 μM tyrosinase, preincubated 30 min at 25° C., by extrapolation (FIG. 5); for partition ratio r: from the intercept on the abscissa in FIG. 5, which is 1+r.

Experiment [5] concerns the target mushroom tyrosinase. Put plainly: Michaelis constant and maximal inactivation rate constant (method of Frere et al.). The experiment is classed as biochemical. As to conditions: for maximal inactivation rate constant ki-max / Ki: 0.03 μM tyrosinase, 2.5 mM L-DOPA as enzyme substrate, 50 to 300 μM suicide substrate (FIG. 6); for Ki: read-out: Michaelis constant KI of the inactivator. The text has this: The kinetics of inhibition of 7,8,4′-trihydroxyisoflavone and 5,7,8,4′-tetrahydroxyisoflavone were studied by using the method of Frere et al. and by measuring the oxidation of L-DOPA by mushroom tyrosinase in the presence of each of the two suicide substrates. During the assay, the concentration of the tested suicide substrate was much higher than that of the enzyme. When the progress of the inactivation of the enzyme was monitored at high suicide substrate/enzyme ratios, the concentration of suicide substrate ([I]) could be considered as constant throughout the process and a pseudo-first-order rate constant (ki) could be determined by using equation 1, where ki-max and KI represent the maximal inactivation velocity and the Michaelis constant of the inactivator.
In the presence of L-DOPA, the exponential decrease in the rate of oxidation of L-DOPA gave an apparent first-order rate constant kobs, which was computed from plots of ln(vt/v0) against t, where v0 and vt are the rates of increase of absorbance at 475 nm, at zero time and at time t, respectively. Assuming a competitive interaction between the added isoflavone and L-DOPA with the enzyme, the variation of kobs with the concentrations of the isoflavone ([I]) and L-DOPA ([S]) are given by equation 2
where KS and KI are the Michaelis constants for L-DOPA and the isoflavone, respectively. When equation 2 is written as
[I]/kobs=[I]/ki-max+KI/ki-max(1+[S]/KS) (3)
it is clear that a plot of [I]/kobs against [I] will be linear and that ki-max and KI can be found from the intercept and slope.
The Michaelis constants (KI) and maximal inactivation rate constants (ki-max) of suicide substrates were determined according to the method of Frere et al. (17). The inactivation reactions were carried out in the presence of 0.03 μM mushroom tyrosinase, 2.5 mM L-DOPA, and the suicide substrate at concentrations ranging from 50 to 300 μM, and the formation of dopachrome was monitored every second for 2 min with a spectrophotometer. […] Both KI and ki-max could thus be calculated, assuming a competition between the added isoflavone and L-DOPA.

Take `O=c1c(-c2ccc(O)cc2)coc2c(O)c(O)cc(O)c12` [5,7,8,4′-tetrahydroxyisoflavone]: in the experiment with mushroom tyrosinase [1], the “behaviour as substrate of tyrosinase (HPLC)” value is listed as “acted as the substrates of mushroom tyrosinase”. In the experiment with mushroom tyrosinase [2], the “enzyme inactivation after preincubation” value is on record as “totally inactivated” and the type of inhibition entry is “irreversible inhibitors”. In the experiment with mushroom tyrosinase [3], the “inhibition of monophenolase activity (dopachrome formation)” value was “slowed and stopped the formation of dopachrome”; the “lag time of monophenolase activity (L-tyrosine oxidation)” value was “without the lag time”. Also, in the experiment on mushroom tyrosinase [4], the “molecules required to inactivate 1 molecule of the enzyme (1+r)” value was 36.5±3.8 molecules and the partition ratio r amounted to 35.5±3.8. In addition, at mushroom tyrosinase [5], the “maximal inactivation rate constant ki-max” value was determined as 1.01 ± 0.04 L·min and the Ki came to 7.81 ± 0.05 µM.
For `O=c1c(-c2ccc(O)cc2)coc2c(O)c(O)ccc12` [7,8,4′-trihydroxyisoflavone], the “behaviour as substrate of tyrosinase (HPLC)” value in the experiment on mushroom tyrosinase [1] is “acted as the substrates of mushroom tyrosinase”. In addition, in the experiment with mushroom tyrosinase [2], the “enzyme inactivation after preincubation” value was “totally inactivated” and the type of inhibition result is reported as “irreversible inhibitors”. In addition, in the experiment with mushroom tyrosinase [3], the “inhibition of monophenolase activity (dopachrome formation)” value is “slowed and stopped the formation of dopachrome”; the “lag time of monophenolase activity (L-tyrosine oxidation)” value is “without the lag time”. In the experiment with mushroom tyrosinase [4], the “molecules required to inactivate 1 molecule of the enzyme (1+r)” value was 82.7±5.9 molecules and the partition ratio r turned out to be 81.7±5.9. Besides, at mushroom tyrosinase [5], the “maximal inactivation rate constant ki-max” value amounted to 0.79 ± 0.08 L·min and the Ki came out at 18.7 ± 2.31 µM.
In the case of `N[C@@H](Cc1ccc(O)c(O)c1)C(=O)O` [L-DOPA, 3,4-dihydroxyphenylalanine, reference compound], the “Michaelis constant KS for L-DOPA” value with mushroom tyrosinase [5] (same experimental conditions) was determined as 0.25 ± 0.01 mM.
